From patent US8309685B2 (Celgene Avilomics Research, Inc., priority 2007, dated 2012)

What was measured:
[1] = biological target: T1, wild type HCV NS3/4A 1b protease enzyme (Hepatitis C virus genotype 1b, UniProt P26663); assay: HCV Protease FRET Assay (IC50_APP), wild type; type: biochemical; conditions: read-out: IC50_APP, WT; apparent IC50, wild type NS3/4A 1b
T1 construct: 10× stocks of NS3/4A protease enzyme from Bioenza (Mountain View, Calif.); purchased Bioenza (Mountain View, Calif.)
Description: (§1) HCV Protease FRET Assay for WT and Mutated NS3/4A 1b Enzymes (IC50—APP).
(§2) The following protocol was used to generate “apparent” IC50 (IC50—APP) values as depicted in Table 6, below. […] 5 μL of each enzyme were added to Corning (#3575) 384-well, black, microtiter plates (Corning, N.Y.) after spotting a 0.5 μL volume of 50% DMSO and serially diluted compounds prepared in 50% DMSO. Protease reactions were immediately started after enzyme addition with the addition of 45 μL of the FRET substrate and monitored for 60-90 minutes at λex485/λem520 in a Synergy^4 plate reader from BioTek (Winooski, Vt.). At the conclusion of each assay, progress curves from each well were examined for linear reaction kinetics and fit statistics (R^2, 95% confidence intervals, absolute sum of squares).
(§3) The compound numbers correspond to the compound numbers in Table 3. […] ;

[2] = biological target: T2, D168A mutant of the HCV NS3/4A 1b protease enzyme (Hepatitis C virus genotype 1b, UniProt P26663, D1194A); assay: HCV Protease FRET Assay (IC50_APP), D168A mutant; type: biochemical; conditions: apparent IC50, D168A mutant; read-out: IC50_APP, HCV D168A
T2 construct: 10× stocks of NS3/4A protease enzyme from Bioenza (Mountain View, Calif.); purchased Bioenza (Mountain View, Calif.)
Description: as §1, §2, §3

[3] = biological target: T3, A156T mutant of the HCV NS3/4A 1b protease enzyme (Hepatitis C virus genotype 1b, UniProt P26663, A1182T); assay: HCV Protease FRET Assay (IC50_APP), A156T mutant; type: biochemical; conditions: apparent IC50, A156T mutant; read-out: IC50_APP, HCV A156T
T3 construct: 10× stocks of NS3/4A protease enzyme from Bioenza (Mountain View, Calif.); purchased Bioenza (Mountain View, Calif.)
Description: as §1, §2, §3

[4] = system: HCV RNA replicon in cell line ET (luc-ubi-neo/ET), human Huh7 hepatoma; assay: Method A: HCV RNA replicon antiviral assay (luciferase, ET cell line); type: cell-based, Hepatitis C virus; conditions: Hepatitis C virus, Huh-7, assay described in Example 22; for IC50: read-out: Replicon (IC50)
Description: The compounds were assayed to evaluate the antiviral activity and cytotoxicity of compounds in vitro using HCV RNA replicons. This assay used the cell line ET (luc-ubi-neo/ET), which is a human Huh7 hepatoma cell line that contains an HCV RNA replicon with a stable luciferase (Luc) reporter and three cell culture-adaptive mutations. […]
The ET cell line was grown in Dulbecco's modified essential media (DMEM), 10% fetal bovine serum (FBS), 1% penicillin-streptomycin (pen-strep), 1% glutamine, 250 μg/ml G418 in a 5% CO2 incubator at 37° C. All cell culture reagents were obtained from Mediatech (Manassas, Va.). Cells were trypsinized (1% trypsin:EDTA) and plated out at 5×10^3 cells/well in white 96-well assay plates (Costar) dedicated to cell number (cytotoxicity) or antiviral activity assessments. Drugs were added at six 3-fold concentrations each and the assay was run in DMEM, 5% FBS, 1% pen-strep, 1% glutamine. Human interferon alpha-2b (PBL Biolabs, New Brunswick, N.J.) was included in each run as a positive control compound. Cells were processed 72 hr post drug addition when the cells are still subconfluent. Antiviral activity was measured by analyzing replicon-derived luciferase activity using the Steady-Glo Luciferase Assay System (Promega, Madison, Wis.) according to manufacturer's instruction. The number of cells in each well was determined by CytoTox-1 reagent (Promega). Compound profile was derived by calculating applicable EC50 (effective concentration inhibiting virus replication by 50%), EC90 (effective concentration inhibiting virus replication by 90%), IC50 (concentration decreasing cell viability by 50%) and SI50 (selective index: […]) values.

## C=C[C@@H]1C[C@]1(NC(=O)[C@@H]1C[C@@H](Oc2cc(-c3ccccc3)nc3cc(OC)ccc23)CN1C(=O)C(CN(C)C(=O)C#CC)NC(=O)OC(C)(C)C)C(=O)NS(=O)(=O)c1ccccc1 (stereo in doubt) [Compound I-51, tert-butyl-(S)-1-((2S,4R)-4-(7-methoxy-2-phenylquinolin-4-yloxy)-2-((1R,2S)-1-(phenylsulfonylcarbamoyl)-2-vinylcyclopropylcarbamoyl)pyrrolidin-1-yl)-3-(N-methylbut-2-ynamido)-1-oxopropan-2-ylcarbamate]
[1]
  IC50: 0.01 to 0.1 µM
[2]
  IC50: 1 to 10 µM

## C=C[C@@H]1C[C@]1(NC(=O)[C@@H]1C[C@@H](Oc2cc(-c3ccccc3)nc3cc(OC)ccc23)CN1C(=O)C(CN(C)C(=O)C(=C)C(F)(F)F)NC(=O)OC(C)(C)C)C(=O)NS(=O)(=O)c1ccccc1 (stereo in doubt) [Compound I-53, tert-butyl-(S)-1-((2S,4R)-4-(7-methoxy-2-phenylquinolin-4-yloxy)-2-((1R,2S)-1-(phenylsulfonylcarbamoyl)-2-vinylcyclopropylcarbamoyl)pyrrolidin-1-yl)-3-(N-methyl-2-(trifluoromethyl)acrylamido)-1-oxopropan-2-ylcarbamate]
[1]
  IC50: < 0.01 µM
[3]
  IC50: 0.01 to 0.1 µM
[2]
  IC50: 0.1 to 1 µM
[4]
  IC90: > 10 µM
  IC50: 0.1 to 1 µM

## C=CC(=O)N(C)C[C@H](NC(=O)OC(C)(C)C)C(=O)N1C[C@H](Oc2cc(-c3ccccc3)nc3cc(OC)ccc23)C[C@H]1C(=O)N[C@]1(C(=O)NS(=O)(=O)C2CC2)C[C@H]1C=C [Compound I-52, tert-butyl-(S)-1-((2S,4R)-2-((1R,2S)-1-(cyclopropylsulfonylcarbamoyl)-2-vinylcyclopropylcarbamoyl)-4-(7-methoxy-2-phenylquinolin-4-yloxy)pyrrolidin-1-yl)-3-(N-methylacrylamido)-1-oxopropan-2-ylcarbamate]
[1]
  IC50: < 0.01 µM
[3]
  IC50: 0.1 to 1 µM
[2]
  IC50: 1 to 10 µM
[4]
  IC90: < 0.01 µM
  IC50: < 0.01 µM

## C=CC(=O)NC[C@H](NC(=O)OC1CCCC1)C(=O)N1C[C@H](Oc2cc(-c3ccccc3)nc3cc(OC)ccc23)C[C@H]1C(=O)N[C@]1(C(=O)NS(=O)(=O)C2CC2)C[C@H]1C=C [Compound I-55, Cyclopentyl-(S)-3-acrylamido-1-((2S,4R)-2-((1R,2S)-1-(cyclopropylsulfonylcarbamoyl)-2-vinylcyclopropylcarbamoyl)-4-(7-methoxy-2-phenylquinolin-4-yloxy)pyrrolidin-1-yl)-1-oxopropan-2-ylcarbamate]
[1]
  IC50: < 0.01 µM
[3]
  IC50: 0.1 to 1 µM
[2]
  IC50: 0.1 to 1 µM
[4]
  IC90: 0.1 to 1 µM
  IC50: < 0.01 µM

## C=CC(=O)N[C@@H](C(=O)N1C[C@H](Oc2cc(-c3ccccc3)nc3cc(OC)ccc23)C[C@H]1C(=O)N[C@]1(C(=O)NS(=O)(=O)C2CC2)C[C@H]1C=C)C(C)C [Compound I-56, (2S,4R)-1-((R)-2-acrylamido-3-methylbutanoyl)-N-((1R,2S)-1-(cyclopropylsulfonylcarbamoyl)-2-vinylcyclopropyl)-4-(7-methoxy-2-phenylquinolin-4-yloxy)pyrrolidine-2-carboxamide]
[1]
  IC50: < 0.01 µM
[3]
  IC50: 0.01 to 0.1 µM
[2]
  IC50: 0.1 to 1 µM
[4]
  IC90: 0.01 to 0.1 µM
  IC50: < 0.01 µM

## C=C[C@@H]1C[C@]1(NC(=O)[C@@H]1C[C@@H](Oc2cc(-c3ccccc3)nc3cc(OC)ccc23)CN1C(=O)CNC(=O)/C=C/C)C(=O)NS(=O)(=O)C1CC1 [Compound I-57, (2S,4R)-1-(2-(E)-but-2-enamidoacetyl)-N-((1R,2S)-1-(cyclopropylsulfonylcarbamoyl)-2-vinylcyclopropyl)-4-(7-methoxy-2-phenylquinolin-4-yloxy)pyrrolidine-2-carboxamide]
[1]
  IC50: 0.1 to 1 µM
[2]
  IC50: 1 to 10 µM

## C=CC(=O)N(C)C[C@H](NC(=O)c1cnccn1)C(=O)N1C[C@H](Oc2cc(-c3ccccc3)nc3cc(OC)ccc23)C[C@H]1C(=O)N[C@]1(C(=O)NS(=O)(=O)C2CC2)C[C@H]1C=C [Compound I-58, (S)—N-3-(N-methyl)acrylamido-1-((2S,4R)-2-((1R,2S)-1-(cyclopropylsulfonylcarbamoyl)-2-vinylcyclopropylcarbamoyl)-4-(7-methoxy-2-phenylquinolin-4-yloxy)pyrrolidin-1-yl)-1-oxo-2-propylpyrazinecarboxamide]
[1]
  IC50: 0.01 to 0.1 µM
[3]
  IC50: 1 to 10 µM
[2]
  IC50: 1 to 10 µM
[4]
  IC90: 1 to 10 µM
  IC50: 0.1 to 1 µM

## C=C[C@@H]1C[C@]1(NC(=O)[C@@H]1C[C@@H](Oc2cc(-c3ccccc3)nc3cc(OC)ccc23)CN1C(=O)[C@H](Cc1ccc(F)c([N+](=O)[O-])c1)NC(=O)OC(C)(C)C)C(=O)NS(=O)(=O)c1ccccc1 [Compound I-59, tert-butyl-(S)-1-((2S,4R)-4-(7-methoxy-2-phenylquinolin-4-yloxy)-2-((1R,2S)-1-(phenylsulfonylcarbamoyl)-2-vinylcyclopropylcarbamoyl)pyrrolidin-1-yl)-3-(4-fluoro-3-nitrophenyl)-1-oxopropan-2-ylcarbamate]
[1]
  IC50: < 0.01 µM
[3]
  IC50: 1 to 10 µM
[2]
  IC50: 1 to 10 µM
[4]
  IC90: 1 to 10 µM
  IC50: 0.1 to 1 µM

## C=CC(=O)N[C@H](C(=O)N1C[C@H](Oc2cc(-c3ccccc3)nc3cc(OC)ccc23)C[C@H]1C(=O)N[C@]1(C(=O)NS(=O)(=O)c2ccccc2)C[C@H]1C=C)C(C)C [Compound I-60, (2S,4R)-1-((S)-2-acrylamido-3-methylbutanoyl)-N-((1R,2S)-1-(phenylylsulfonylcarbamoyl)-2-vinylcyclopropyl)-4-(7-methoxy-2-phenylquinolin-4-yloxy)pyrrolidine-2-carboxamide]
[1]
  IC50: 0.01 to 0.1 µM
[3]
  IC50: 0.1 to 1 µM
[2]
  IC50: 1 to 10 µM
[4]
  IC90: 0.1 to 1 µM
  IC50: 0.01 to 0.1 µM

## C=C[C@@H]1C[C@]1(NC(=O)[C@@H]1C[C@@H](Oc2cc(-c3ccccc3)nc3cc(OC)ccc23)CN1C(=O)CNC(=O)c1ccc([N+](=O)[O-])cc1F)C(=O)NS(=O)(=O)c1ccccc1 [Compound I-63, (2S,4R)-1-(2-fluoro-4-nitrobenzamidoacetyl)-N-((1R,2S)-1-(phenylsulfonylcarbamoyl)-2-vinylcyclopropyl)-4-(7-methoxy-2-phenylquinolin-4-yloxy)pyrrolidine-2-carboxamide]
[1]
  IC50: 0.1 to 1 µM
[3]
  IC50: 1 to 10 µM
[2]
  IC50: 1 to 10 µM

## C=CC(=O)N[C@@H](C(=O)N1C[C@H](Oc2cc(-c3ccccc3)nc3cc(OC)ccc23)C[C@H]1C(=O)N[C@]1(C(=O)NS(=O)(=O)C2CC2)C[C@H]1C=C)C(C)(C)C [Compound I-65, (2S,4R)-1-((R)-2-acrylamido-3,3-dimethylbutanoyl)-N-((1R,2S)-1-(cyclopropylsulfonylcarbamoyl)-2-vinylcyclopropyl)-4-(7-methoxy-2-phenylquinolin-4-yloxy)pyrrolidine-2-carboxamide]
[1]
  IC50: 0.1 to 1 µM
[3]
  IC50: 1 to 10 µM
[2]
  IC50: 1 to 10 µM

## C=C[C@@H]1C[C@]1(NC(=O)[C@@H]1C[C@@H](Oc2cc(-c3ccccc3)nc3cc(OC)ccc23)CN1C(=O)[C@H](CCC(=O)N[C@H]1COC1=O)NC(=O)OC(C)(C)C)C(=O)NS(=O)(=O)C1CC1 [Compound I-69, t-butyl-(2S)-1-((2S,4R)-2-((1R,2S)-1-(cyclopropylsulfonylcarbamoyl)-2-vinylcyclopropylcarbamoyl)-4-(7-methoxy-2-phenylquinolin-4-yloxy)pyrrolidin-1-yl)-5-((3S)-2-oxooxetan-3-ylamino)-1,5-dioxopentan-2-ylcarbamate]
[1]
  IC50: < 0.01 µM
[3]
  IC50: 0.1 to 1 µM
[2]
  IC50: 0.1 to 1 µM
